Measurements published in US20200216439A1, “HETERO-1,5,6,7-TETRAHYDRO-4H-INDOL-4-ONES” (BAYER PHARMA AKTIENGESELLSCHAFT, priority 2015, published 2020).

Biological target: T1, catalytic domain of human Bub1 (amino acids 704-1085) (Homo sapiens, UniProt O43683)
T1 construct: catalytic domain of human Bub1 (amino acids 704-1085); His6 (N); made in house; host or cells: Hi5 insect cells
Test: Bub1 kinase assay (TR-FRET)
Type: biochemical
Conditions: TR-FRET; ATP 10 μM, peptide substrate 1 μM; 60 min at 22° C.; average or median if tested more than once; read-out: Inhibition of Bub1 kinase IC50
Outline: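 Eleven concentrations (0.1 nM–20 μM, duplicate) fitted by 4-parameter logistic for IC50. Read-out: EDTA-stopped TR-FRET (665/620 nm) detecting anti-phosphoserine binding to biotin-peptide (1 μM). Reaction used 10 μM ATP, 60 min at 22 °C, after 15 min compound preincubation with His-tagged human Bub1 704-1085.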

T1 sequence (O43683 704-1085): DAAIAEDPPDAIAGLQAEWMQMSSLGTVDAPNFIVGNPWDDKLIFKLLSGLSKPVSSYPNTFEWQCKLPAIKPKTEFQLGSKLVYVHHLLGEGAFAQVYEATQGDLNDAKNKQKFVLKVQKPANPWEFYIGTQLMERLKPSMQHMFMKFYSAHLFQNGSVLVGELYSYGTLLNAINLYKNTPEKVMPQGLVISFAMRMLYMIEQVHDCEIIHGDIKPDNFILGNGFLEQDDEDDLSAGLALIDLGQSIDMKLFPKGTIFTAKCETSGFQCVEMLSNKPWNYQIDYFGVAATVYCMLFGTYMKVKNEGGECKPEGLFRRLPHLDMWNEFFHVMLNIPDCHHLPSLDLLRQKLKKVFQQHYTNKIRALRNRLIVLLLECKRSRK

Structure (SMILES) | IC50
C[S+]([O-])CC(=O)Nc1cc(-c2[nH]c3c(c2Nc2ccccc2)C(=O)COC3)ccn1 (stereo not shown) [Example 47, 2-(Methylsulfinyl)-N-{4-[4-oxo-3-(phenylamino)-1,4,5,7-tetrahydropyrano[3,4-b]pyrrol-2-yl]pyridin-2-yl}acetamide] | 341 nM
CS(=O)(=O)CC(=O)Nc1cc(-c2[nH]c3c(c2Nc2ccccc2)C(=O)COC3)ccn1 [Example 48, 2-(Methylsulfonyl)-N-{4-[4-oxo-3-(phenylamino)-1,4,5,7-tetrahydropyrano[3,4-b]pyrrol-2-yl]pyridin-2-yl}acetamide] | 115 nM
O=C(Nc1cc(-c2[nH]c3c(c2Nc2ccccc2)C(=O)COC3)ccn1)c1cscn1 [Example 49, N-{4-[4-Oxo-3-(phenylamino)-1,4,5,7-tetrahydropyrano[3,4-b]pyrrol-2-yl]pyridin-2-yl}-1,3-thiazole-4-carboxamide] | 51 nM
O=C(Nc1cc(-c2[nH]c3c(c2Nc2ccccc2)C(=O)COC3)ccn1)c1cncs1 [Example 51, N-{4-[4-Oxo-3-(phenylamino)-1,4,5,7-tetrahydropyrano[3,4-b]pyrrol-2-yl]pyridin-2-yl}-1,3-thiazole-5-carboxamide] | 44 nM
COC(=O)Nc1cc(-c2[nH]c3c(c2Nc2ccccc2)C(=O)COC3)ccn1 [Example 53, Methyl {4-[4-oxo-3-(phenylamino)-1,4,5,7-tetrahydropyrano[3,4-b]pyrrol-2-yl]pyridin-2-yl}carbamate] | 82 nM
CCNC(=O)Nc1cc(-c2[nH]c3c(c2Nc2ccccc2)C(=O)COC3)ccn1 [Example 54, 1-Ethyl-3-{4-[4-oxo-3-(phenylamino)-1,4,5,7-tetrahydropyrano[3,4-b]pyrrol-2-yl]pyridin-2-yl}urea] | 77 nM
O=C(Nc1cc(-c2[nH]c3c(c2Nc2ccccc2)C(=O)COC3)ccn1)NC1CC1 [Example 55, 1-Cyclopropyl-3-{4-[4-oxo-3-(phenylamino)-1,4,5,7-tetrahydropyrano[3,4-b]pyrrol-2-yl]pyridin-2-yl}urea] | 98 nM
Cn1cnc(C(=O)N2CC(=O)c3c([nH]c(-c4ccncc4)c3Nc3ccccc3)C2)c1 [Example 60, 6-[(1-Methyl-1H-imidazol-4-yl)carbonyl]-3-(phenylamino)-2-(pyridin-4-yl)-1,5,6,7-tetrahydro-4H-pyrrolo[2,3-c]pyridin-4-one] | 67 nM
O=C1CN(C(=O)c2ccccn2)Cc2[nH]c(-c3ccncc3)c(Nc3ccccc3)c21 [Example 61, 3-(phenylamino)-2-(pyridin-4-yl)-6-(pyridin-2-ylcarbonyl)-1,5,6,7-tetrahydro-4H-pyrrolo[2,3-c]pyridin-4-one] | 40 nM
Cn1c2c(c(Nc3ccccc3)c1-c1ccncc1)C(=O)CN(S(C)(=O)=O)C2 [Example 64, 1-Methyl-6-(methylsulfonyl)-3-(phenylamino)-2-(pyridin-4-yl)-1,5,6,7-tetrahydro-4H-pyrrolo[2,3-c]pyridin-4-one] | 1400 nM
CCn1c2c(c(Nc3ccccc3)c1-c1ccncc1)C(=O)CN(S(C)(=O)=O)C2 [Example 65, 1-Ethyl-6-(methylsulfonyl)-3-(phenylamino)-2-(pyridin-4-yl)-1,5,6,7-tetrahydro-4H-pyrrolo[2,3-c]pyridin-4-one] | 1680 nM

These reach a lower IC50. Values come first.

IC50 | Structure (SMILES)
26 nM | O=C(Nc1cc(-c2[nH]c3c(c2Nc2ccccc2)C(=O)COC3)ccn1)c1cnco1 [Example 50, N-{4-[4-Oxo-3-(phenylamino)-1,4,5,7-tetrahydropyrano[3,4-b]pyrrol-2-yl]pyridin-2-yl}-1,3-oxazole-5-carboxamide]
10 nM | O=C(Nc1cc(-c2[nH]c3c(c2Nc2ccccc2)C(=O)COC3)ccn1)c1ccc(F)cc1 [Example 52, 4-Fluoro-N-{4-[4-oxo-3-(phenylamino)-1,4,5,7-tetrahydropyrano[3,4-b]pyrrol-2-yl]pyridin-2-yl}benzamide]
5 nM | O=C1CN(C(=O)CCO)Cc2[nH]c(-c3ccncc3)c(Nc3ccccc3)c21 [Example 56, 6-(3-Hydroxypropanoyl)-3-(phenylamino)-2-(pyridin-4-yl)-1,5,6,7-tetrahydro-4H-pyrrolo[2,3-c]pyridin-4-one]
8 nM | CC(C)(O)CC(=O)N1CC(=O)c2c([nH]c(-c3ccncc3)c2Nc2ccccc2)C1 [Example 57, 6-(3-Hydroxy-3-methylbutanoyl)-3-(phenylamino)-2-(pyridin-4-yl)-1,5,6,7-tetrahydro-4H-pyrrolo[2,3-c]pyridin-4-one]
8 nM | CC(C)(C)CC(=O)N1CC(=O)c2c([nH]c(-c3ccncc3)c2Nc2ccccc2)C1 [Example 58, 6-(3,3-Dimethylbutanoyl)-3-(phenylamino)-2-(pyridin-4-yl)-1,5,6,7-tetrahydro-4H-pyrrolo[2,3-c]pyridin-4-one]
10 nM | O=C1CN(C(=O)c2cnc[nH]2)Cc2[nH]c(-c3ccncc3)c(Nc3ccccc3)c21 [Example 59, 6-(1H-Imidazol-5-ylcarbonyl)-3-(phenylamino)-2-(pyridin-4-yl)-1,5,6,7-tetrahydro-4H-pyrrolo[2,3-c]pyridin-4-one]
15 nM | O=C1CN(C(=O)c2cccnc2)Cc2[nH]c(-c3ccncc3)c(Nc3ccccc3)c21 [Example 62, 3-(phenylamino)-2-(pyridin-4-yl)-6-(pyridin-3-ylcarbonyl)-1,5,6,7-tetrahydro-4H-pyrrolo[2,3-c]pyridin-4-one]
9 nM | O=C1CN(C(=O)c2ccncc2)Cc2[nH]c(-c3ccncc3)c(Nc3ccccc3)c21 [Example 63, 3-(phenylamino)-2-(pyridin-4-yl)-6-(pyridin-4-ylcarbonyl)-1,5,6,7-tetrahydro-4H-pyrrolo[2,3-c]pyridin-4-one]
9 nM | O=C1CN(S(=O)(=O)C2CC2)Cc2[nH]c(-c3ccncc3)c(Nc3ccccc3)c21 [Example 66, 6-(Cyclopropylsulfonyl)-3-(phenylamino)-2-(pyridin-4-yl)-1,5,6,7-tetrahydro-4H-pyrrolo[2,3-c]pyridin-4-one]
6 nM | CC(C)S(=O)(=O)N1CC(=O)c2c([nH]c(-c3ccncc3)c2Nc2ccccc2)C1 [Example 67, 3-(phenylamino)-6-(propan-2-ylsulfonyl)-2-(pyridin-4-yl)-1,5,6,7-tetrahydro-4H-pyrrolo[2,3-c]pyridin-4-one]
5 nM | O=C1CN(S(=O)(=O)C(F)F)Cc2[nH]c(-c3ccncc3)c(Nc3ccccc3)c21 [Example 68, 6-[(Difluoromethyl)sulfonyl]-3-(phenylamino)-2-(pyridin-4-yl)-1,5,6,7-tetrahydro-4H-pyrrolo[2,3-c]pyridin-4-one]
4 nM | O=C1CN(S(=O)(=O)CCC(F)(F)F)Cc2[nH]c(-c3ccncc3)c(Nc3ccccc3)c21 [Example 69, 3-(phenylamino)-2-(pyridin-4-yl)-6-[(3,3,3-trifluoropropyl)sulfonyl]-1,5,6,7-tetrahydro-4H-pyrrolo[2,3-c]pyridin-4-one]
7 nM | O=C1CN(S(=O)(=O)C2CCOCC2)Cc2[nH]c(-c3ccncc3)c(Nc3ccccc3)c21 [Example 70, 3-(phenylamino)-2-(pyridin-4-yl)-6-(tetrahydro-2H-pyran-4-ylsulfonyl)-1,5,6,7-tetrahydro-4H-pyrrolo[2,3-c]pyridin-4-one]
8 nM | O=C1CN(S(=O)(=O)CC2CCOCC2)Cc2[nH]c(-c3ccncc3)c(Nc3ccccc3)c21 [Example 71, 3-(phenylamino)-2-(pyridin-4-yl)-6-[(tetrahydro-2H-pyran-4-ylmethyl)sulfonyl]-1,5,6,7-tetrahydro-4H-pyrrolo[2,3-c]pyridin-4-one]
